According to patent US20250051301A1, “MUTANT IDH1 AND IDH2 INHIBITOR AND APPLICATION THEREOF” (Betta Pharmaceuticals Co., Ltd, priority 2022, published 2025):

Legend:
[1] = biological target: T1, IDH1^R132H (Homo sapiens, UniProt O75874, R132H); experiment: Enzyme activity inhibition assay (fluorescence-based), IDH1 R132H; assay type: biochemical
Procedure: The inhibitory ability of the compounds on the enzyme activities of IDH1^R132H and IDH2^R140Qwas detected and expressed as the half inhibitory concentration (IC50) value. AG-881 was used as a positive control compound. In this experiment, compounds were screened on enzymes IDH1^R132H and IDH2^R140Q using a fluorescence-based method (initial concentration: 10000 nM, 3-fold dilution, 10 concentrations, and single-well detection). • (1) Preparation of 1×assay buffer. • (2) Preparation of compound concentration gradient: the compounds to be tested were assayed at an initial concentration of 10000 nM, with 3-fold dilution and 10 concentrations, and diluted into 200-fold the final concentration in 100% DMSO solution in a 384-well plate. • (3) 250 nL of DMSO and 250 nL of diluted compounds were transferred to a reaction plate with Echo 550. • (4) IDH2^R140Q enzyme detection: 25 μL of an IDH2^R140Q enzyme solution was added, and the mixture was incubated for 60 minutes; then 25 μL of a substrate solution was added, and the mixture was incubated for 150 minutes; then 25 μL of a detection buffer was added, and the mixture was shaken for 1 minute and incubated for 60 minutes; and finally, Synergy 2, Ex544/Em590 cutoff 590 was used for reading. • (5) IDH1^R132H enzyme detection: 40 μL of a mixture solution of an IDH1^R132H enzyme at the 1.25-fold final concentration and NADPH was added, and the mixture was incubated for 60 minutes; then 10 μL of a substrate solution at the 5-fold final concentration was added, and the mixture was incubated for 90 minutes; then 25 μL of a detection buffer at the 3-fold final concentration was added, and the mixture was shaken for 1 minute. and finally, Synergy 2, Ex544/Em590 cutoff 590 was used for reading. • (8) Inhibition rate calculation, formula: % Inhibition=(RFU_sample−RFU_min)/(RFU_max−RFU_min)*100%, wherein RFU-sample represents the fluorescence intensity of a sample; RFU-min represents the average value of negative control wells and represents the fluorescence intensity with an enzyme; and RFU-max represents the average value of positive control wells and represents the fluorescence intensity without an enzyme. The curve fitting was performed using Graphpad Prism software to obtain IC50 values, and the test results were as shown in table 2.

[2] = biological target: T1, IDH1^R132H; experiment: 2-HG assay in cells (U87 cell line stably transfected with IDH1-R132H); assay type: cell-based; conditions: 72 hours, read-out: 2-HG in medium (IC50, nM) (IDH1^R132H)
Procedure: The compounds were detected for the inhibition of 2-HG production in the U87 cell line stably transfected with IDH1-R132H and the culture supernatant of TF-1 cells stably transfected with IDH2-R140Q. • (1) The cultured cells were collected by centrifugation, then suspended in a cell culture solution, counted, and seeded in a 96-well cell culture plate at 160 μL of cell suspension/well (20000 cells/well for U87-IDH1-R132H; 10000 cells/well for TF-1-IDH2-R140Q). • (2) A 96-well plate dilution was taken, and the compounds to be tested were diluted in a gradient manner in DMSO and a cell culture solution; and then 40 μL of the gradient-diluted compounds to be tested were added to the 96-well plate on which cells have been plated. […] Finally, the plate was cultured in a 37° C. incubator containing 5% CO2. • (3) After the compounds were incubated with the cells for 72 hours, the cell culture plate was taken out and centrifuged at 1500 rpm for 5 minutes, and then 100 μL of the medium supernatant was aspirated for 2-HG detection. • (4) 2-HG detection: the cell supernatant was diluted with purified water, 30 μL of the diluted sample was taken into a 1.5 ml centrifuge tube, and 200 μL of the internal standard solution was added. The mixture was mixed uniformly by vortex and centrifuged at 3200 rpm at 4° C. for 15 minutes. 100 μL of the supernatant solution was diluted with water at a 1:1 ratio and then detected by LC-MS. Analyte Peak Area was used to represent the 2-HG levels. • (5) Inhibition rate calculation, formula: % Inhibition=(1−Analyte Peak Area_sample/Analyte Peak Area_max)*100%, wherein Analyte Peak Area_sample represents the Analyte Peak Area of the sample to which the compound was added; Analyte Peak Area_max represents the average value of Analyte Peak Area of positive control wells (representing the absence of the compound). The curve fitting was performed using Graphpad Prism software to obtain IC50 values, and the test results were as shown in table 2.

T1 sequence (O75874 whole entry R132H): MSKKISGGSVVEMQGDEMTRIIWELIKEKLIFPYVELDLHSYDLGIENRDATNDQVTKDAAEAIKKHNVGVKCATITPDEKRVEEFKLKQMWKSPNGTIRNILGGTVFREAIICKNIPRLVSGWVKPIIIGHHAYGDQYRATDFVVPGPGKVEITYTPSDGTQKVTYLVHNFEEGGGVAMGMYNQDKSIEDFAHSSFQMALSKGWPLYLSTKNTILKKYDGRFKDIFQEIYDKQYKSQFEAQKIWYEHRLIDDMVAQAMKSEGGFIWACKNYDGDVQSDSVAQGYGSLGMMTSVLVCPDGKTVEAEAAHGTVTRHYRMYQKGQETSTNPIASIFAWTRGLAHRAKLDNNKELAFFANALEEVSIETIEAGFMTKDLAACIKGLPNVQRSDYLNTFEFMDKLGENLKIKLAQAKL

Row | Structure (SMILES) | IC50 ([1]; numeric values) [nM] | IC50 ([2]; numeric values) [nM] | IC50 ([1]; class symbols) [nM] | IC50 ([2]; class symbols) [nM]
1 | C[C@@H](Nc1nc(N[C@H](C)C(F)(F)F)nc(-c2ccc(N)c(Cl)n2)n1)C(F)(F)F [Example 2] | 22 | 17 | – | –
2 | COc1cc(-c2nc(N[C@H](C)C(F)(F)F)nc(N[C@H](C)C(F)(F)F)n2)nc(Cl)c1N [Example 3, 6-(5-amino-6-chloro-4-methoxypyridin-2-yl)-N^2,N^4-bis((R)-1,1,1-trifluoroprop-2-yl)-1,3,5-triazine-2,4-diamine] | – | – | > 1000 | > 1000
3 | C[C@@H](Nc1nc(N[C@H](C)C(F)(F)F)nc(-c2nc(Cl)c(N)cc2F)n1)C(F)(F)F [Example 4, 6-(5-amino-6-chloro-3-fluoropyridin-2-yl)-N^2,N^4-bis((R)-1,1,1-trifluoroprop-2-yl)-1,3,5-triazine-2,4-diamine] | – | – | > 1000 | > 1000
4 | C=Cc1cc(-c2nc(N[C@H](C)C(F)(F)F)nc(N[C@H](C)C(F)(F)F)n2)nc(Cl)c1N [Example 9, 6-(5-amino-6-chloro-4-vinylpyridin-2-yl)-N^2,N^4-bis((R)-1,1,1-trifluoropropyl-2-yl)-1,3,5-triazine-2,4-diamine] | – | – | > 1000 | > 1000
5 | C[C@@H](Nc1nc(N[C@H](C)C(F)(F)F)nc(-c2cc(F)c(O)c(Cl)n2)n1)C(F)(F)F [Example 10, 6-(4,6-bis(((R)-1,1,1-trifluoroprop-2-yl)amine)-1,3,5-triazin-2-yl)-2-chloro-4-fluoropyridin-3-ol] | – | – | > 1000 | 100 to 1000
6 | C[C@@H](Nc1nc(N[C@H](C)C2CC2)nc(-c2cc(F)c(N)c(Cl)n2)n1)C1CC1 [Example 11, 6-(5-amino-6-chloro-4-fluoropyridin-2-yl)-N^2,N^4-bis((R)-1-cyclopropylethyl)-1,3,5-triazine-2,4-diamine] | – | – | > 1000 | 100 to 1000
7 | C[C@@H](Nc1nc(N[C@H](C)C(F)(F)F)nc(-c2cc(F)c(N)c(C(F)(F)F)n2)n1)C(F)(F)F [Example 13, 6-(5-amino-4-fluoro-6-(trifluoromethyl)pyridin-2-yl)-N^2,N^4-bis((R)-1,1,1-trifluoroprop-2-yl)-1,3,5-triazine-2,4-diamine] | – | – | > 1000 | 100 to 1000
8 | CNc1c(Cl)cc(-c2nc(N[C@H](C)C(F)(F)F)nc(N[C@H](C)C(F)(F)F)n2)nc1Cl [Example 20, 6-(4,6-dichloro-5-methylaminopyridin-2-yl)-N^2,N^4-bis((R)-1,1,1-trifluoroprop-2-yl)-1,3,5-triazine-2,4-diamine] | – | – | > 1000 | –
9 | C[C@@H](Nc1nc(N[C@H](C)C(F)(F)F)nc(-c2cc(OC(F)F)c(N)c(Cl)n2)n1)C(F)(F)F [Example 22, 6-(5-amino-6-chloro-4-(difluoromethoxy)pyridin-2-yl)-N^2,N^4-bis((R)-1,1,1-trifluoropropyl-2-yl)-1,3,5-triazine-2,4-diamine] | – | – | > 1000 | –

Next, values leading:

Row | IC50 ([1]; numeric values) [nM] | IC50 ([2]; numeric values) [nM] | IC50 ([1]; class symbols) [nM] | IC50 ([2]; class symbols) [nM] | Structure (SMILES)
10 | – | – | 100 to 1000 | 50 to 100 | C[C@@H](Nc1nc(N[C@H](C)C(F)(F)F)nc(-c2cc(Br)c(N)c(Cl)n2)n1)C(F)(F)F [Example 6, 6-(5-amino-4-bromo-6-chloropyridin-2-yl)-N^2,N^4-bis((R)-1,1,1-trifluoropropyl-2-yl)-1,3,5-triazine-2,4-diamine]
11 | – | – | ≤ 50 | ≤ 50 | Nc1c(F)cc(-c2nc(NC3CC(F)(F)C3)nc(NC3CC(F)(F)C3)n2)nc1Cl [Example 12, 6-(5-amino-6-chloro-4-fluoropyridin-2-yl)-N^2,N^4-bis(3,3-difluorocyclobutyl)-1,3,5-triazine-2,4-diamine]
12 | – | – | ≤ 50 | ≤ 50 | C[C@@H](Nc1nc(N[C@H](C)C(F)(F)F)nc(-c2cc(F)c(Cl)c(Cl)n2)n1)C(F)(F)F [Example 17, 6-(5,6-dichloro-4-fluoropyridin-2-yl)-N^2,N^4-bis((R)-1,1,1-trifluoroprop-2-yl)-1,3,5-triazine-2,4-diamine]
13 | – | – | 100 to 1000 | – | C[C@@H](Nc1nc(N[C@H](C)C(F)(F)F)nc(-c2cc(Cl)c(N(C)C)c(Cl)n2)n1)C(F)(F)F [Example 21, 6-(4,6-dichloro-5-dimethylaminopyridin-2-yl)-N^2,N^4-bis((R)-1,1,1-trifluoroprop-2-yl)-1,3,5-triazine-2,4-diamine]
14 | – | – | 100 to 1000 | 100 to 1000 | C[C@@H](Nc1nc(N[C@H](C)C(F)(F)F)nc(-c2cc(C(F)(F)F)c(N)c(Cl)n2)n1)C(F)(F)F [Example 25, 6-(6-chloro-5-amino-4-(trifluoromethyl)pyridin-2-yl)-N^2,N^4-bis((R)-1,1,1-trifluoropropyl-2-yl)-1,3,5-triazine-2,4-diamine]
